From patent publication US8778966B2, “Quinolinone derivatives as PARP and tank inhibitors” (Janssen Pharmaceutica, NV, priority 2007, dated 2014)

Columns and labels:
[1] = target: T1, Human PARP-1 enzyme (Homo sapiens, UniProt P09874); assay: In vitro Scintillation Proximity Assay (SPA) for PARP-1 inhibitory activity; type: biochemical; conditions: read-out: in vitro SPA assay PARP-1 pIC50 (converted)
T1 construct: purchased Trevigen
In short: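 SPA assay: nicked-DNA-activated PARP-1 (0.1–0.2 μg/ml) ADP-ribosylates biotinylated histones (2 μg/ml) using [3H]-NAD+, 20 min at RT in Tris pH 8/DTT/MgCl2, stopped with 2 mM NAD+. Blank-subtracted cpm expressed as % control; IC50 by linear interpolation, reported as pIC50 (10−5 to 3×10−9 M tested).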

[2] = test system: HCT116 cells; assay: Mitotic arrest assay on HCT116 cells (phospho-histone H3 Ser10); type: cell-based, human; conditions: lowest active dose; for minimal effective concentration: Homo sapiens, HCT-116, HCT116 cells, read-out: Mitotic arrest HCT116 LAD (converted); for Mitotic arrest HCT116 LAD: HCT116 cells, the values are: pLAD (−log M lowest active dose)
In short: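 Read-out is imaging of phospho-histone H3 Ser10 (Alexa Fluor 488) with Hoechst nuclear counting, after 6 h compound exposure at 37 °C, DMSO ≤0.1%. LAD is the lowest dose at which the blank-corrected value over SD exceeds 5; triplicates, low-count wells excluded.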

T1 sequence (P09874 whole entry): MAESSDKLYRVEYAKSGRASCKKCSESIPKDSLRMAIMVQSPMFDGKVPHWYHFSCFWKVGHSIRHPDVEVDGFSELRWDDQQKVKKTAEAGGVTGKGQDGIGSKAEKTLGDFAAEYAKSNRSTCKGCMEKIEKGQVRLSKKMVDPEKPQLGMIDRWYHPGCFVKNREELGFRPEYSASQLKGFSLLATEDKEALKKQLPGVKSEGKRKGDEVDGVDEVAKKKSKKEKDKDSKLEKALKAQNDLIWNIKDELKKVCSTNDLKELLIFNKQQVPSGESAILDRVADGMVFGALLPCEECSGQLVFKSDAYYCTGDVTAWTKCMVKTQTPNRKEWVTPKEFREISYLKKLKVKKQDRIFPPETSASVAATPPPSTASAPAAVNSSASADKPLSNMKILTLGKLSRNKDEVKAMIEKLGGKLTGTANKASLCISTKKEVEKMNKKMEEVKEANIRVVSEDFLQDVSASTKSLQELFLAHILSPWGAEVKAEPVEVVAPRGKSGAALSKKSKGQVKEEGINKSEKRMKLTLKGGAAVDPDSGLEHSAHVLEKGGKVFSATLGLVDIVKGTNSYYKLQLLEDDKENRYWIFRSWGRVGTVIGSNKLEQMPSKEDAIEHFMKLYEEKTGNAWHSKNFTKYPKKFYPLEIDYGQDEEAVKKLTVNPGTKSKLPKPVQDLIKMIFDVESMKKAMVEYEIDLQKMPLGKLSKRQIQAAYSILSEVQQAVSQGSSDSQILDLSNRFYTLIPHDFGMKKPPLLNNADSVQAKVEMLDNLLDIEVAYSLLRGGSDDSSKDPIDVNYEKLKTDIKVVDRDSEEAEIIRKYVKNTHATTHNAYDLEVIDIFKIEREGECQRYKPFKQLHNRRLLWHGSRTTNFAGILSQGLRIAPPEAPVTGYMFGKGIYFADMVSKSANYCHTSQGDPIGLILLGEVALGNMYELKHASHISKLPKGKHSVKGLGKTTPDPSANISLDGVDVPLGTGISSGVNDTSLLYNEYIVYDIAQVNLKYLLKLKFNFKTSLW

| Structure (SMILES) | IC50 [1] [µM] | minimal effective concentration [2] [µM] | Mitotic arrest HCT116 LAD [2] |
| --- | --- | --- | --- |
| CCc1cc2ccc(C(C)(C#N)Cc3cccc(Cl)n3)cc2[nH]c1=O (stereo not shown) [Compound 310] | 0.1 | 0.3 | – |
| CCc1cc2ccc([C@](C)(C#N)[C@@H](C)c3ccccc3)cc2[nH]c1=O [Compound 199] | 0.0794 | 3 | – |
| CC(C)c1cc2ccc(C(C)(C#N)Cc3ccccc3)cc2[nH]c1=O (stereo not shown) [Compound 38] | > 10 | 3.16 | – |
| CCc1cc2cc(OC)c(C(C)(C#N)Cc3ccccc3)cc2[nH]c1=O (stereo not shown) [Compound 294] | 0.251 | 3 | – |
| CCc1cc2ccc(C(C)(C#N)Cc3cnc(Cl)nc3Cl)cc2[nH]c1=O (stereo not shown) [Compound 306] | 0.0794 | 10 | – |
| CCc1cc2ccc(C(C)(C#N)Cc3nccn3CC)cc2[nH]c1=O (stereo not shown) [Compound 337] | 0.398 | 1 | – |
| CCc1cc2ccc(C(C)(C#N)CNCc3cccc(C#N)c3)cc2[nH]c1=O (stereo not shown) [Compound 301] | 0.1 | 1 | – |
| CCc1cc2ccc(C(C)(C#N)Cc3cccc(I)n3)cc2[nH]c1=O (stereo not shown) [Compound 214] | 0.0501 | 0.3 | – |
| CCc1cc2ccc(C(C)(C#N)Cc3cccc(C#N)n3)cc2[nH]c1=O (stereo not shown) [Compound 329] | 0.0794 | 0.3 | – |
| CCc1cc2ccc(C(C)(C#N)Cc3cc(OCCOC)nc(C)n3)cc2[nH]c1=O (stereo not shown) [Compound 363] | 0.158 | 3 | – |
| CCc1cc2ccc(C(C)(C#N)Cc3cccc(OCCOC)n3)cc2[nH]c1=O (stereo not shown) [Compound 219] | 0.1 | 1 | – |
| CCc1cc2ccc(C(C)(C#N)Cc3cccc(OC[C@@H](O)CO)c3)cc2[nH]c1=O (stereo partly shown) [Compound 56] | 0.1 | 3 | – |
| CCc1cc2ccc(C(C)(C#N)Cc3cccc(C#CCO)c3)cc2[nH]c1=O (stereo not shown) [Compound 183] | 0.0631 | 0.1 | – |
| CCc1cc2ccc(C(C)(C#N)CCOc3cccc(C(F)(F)F)c3)cc2[nH]c1=O (stereo not shown) [Compound 274] | 0.501 | 1 | – |
| CCc1cc2ccc(C(C)(C#N)Cc3nccc(OCCOC)n3)cc2[nH]c1=O (stereo not shown) [Compound 369] | 0.126 | 1 | – |
| CCc1cc2ccc(C(C)(C#N)Cc3cccc(C#CCN(C)C)c3)cc2[nH]c1=O (stereo not shown) [Compound 298] | 0.501 | 1 | – |
| Cc1cc2ccc([C@](C)(C#N)Cc3cccc(C#N)c3)cc2[nH]c1=O [Compound 36] | 1.58 | 0.1 | – |
| CCc1cc2ccc(C(C)(C#N)C(C)c3ccccc3)cc2[nH]c1=O (stereo not shown) [Compound 198] | 0.126 | 0.3 | – |
| CCc1cc2ccc(C(C)(C#N)Cc3cccc(C#CCOC)c3)cc2[nH]c1=O (stereo not shown) [Compound 297] | 0.0794 | 0.3 | – |
| CCc1cc2ccc(C(C)(C#N)Cc3cc(OC)nc(C)n3)cc2[nH]c1=O (stereo not shown) [Compound 366] | 0.126 | 0.3 | – |
| CCc1cc2ccc(C(C)(C#N)Cc3cc(OCCOC)nc(Cl)n3)cc2[nH]c1=O (stereo not shown) [Compound 367] | 0.0794 | 1 | – |
| CCC[C@@](C#N)(Cc1ccccc1)c1ccc2cc(CC)c(=O)[nH]c2c1 (single isomer, unassigned) [Compound 263] | 0.631 | 1 | – |
| CCc1cc2ccc([C@](C)(C#N)C[C@@H]3Cc4cc(C)ccc4O3)cc2[nH]c1=O (single isomer, unassigned) [Compound 400] | 0.398 | 10 | – |
| CCc1cc2ccc(C(C)(C#N)Cc3cc(OC)nc(OC)n3)cc2[nH]c1=O (stereo not shown) [Compound 358] | 0.0501 | 0.3 | – |
| CCc1cc2ccc(C(C)(C#N)Cc3cccc(CNS(C)(=O)=O)c3)cc2[nH]c1=O (stereo not shown) [Compound 170] | 0.0794 | 3 | – |

| Structure (SMILES) | IC50 [1] [µM] | minimal effective concentration [2] [µM] | Mitotic arrest HCT116 LAD [2] |
| --- | --- | --- | --- |
| CCc1cc2ccc(C(C)(C#N)Cc3nc(Cl)cc(OCCOC)n3)cc2[nH]c1=O (stereo not shown) [Compound 370] | 0.2 | 1 | – |
| CCc1cc2ccc(C(C)(C#N)Cc3cc(OC)ccn3)cc2[nH]c1=O (stereo not shown) [Compound 373] | 0.1 | 1 | – |
| CCc1cc2ccc([C@](C)(C#N)Cc3cccc(N(C)C)c3)cc2[nH]c1=O (single isomer, unassigned) [Compound 259] | 0.0794 | 10 | – |
| CCc1cc2ccc(C(C)(C#N)Cc3cnc(OC)nc3OC)cc2[nH]c1=O (stereo not shown) [Compound 357] | 0.0794 | 0.3 | – |
| CCc1cc2ccc([C@](C)(C#N)Cc3cccc(C#N)c3)cc2[nH]c1=O (single isomer, unassigned) [Compound 269] | 0.0316 | 0.1 | – |
| CCCn1ccnc1CC(C)(C#N)c1ccc2cc(CC)c(=O)[nH]c2c1 (stereo not shown) [Compound 335] | 0.251 | 3 | – |
| CCc1cc2ccc(C(C)(C#N)Cc3cccc(C)n3)cc2[nH]c1=O (stereo not shown) [Compound 343] | 0.0794 | 0.3 | – |
| COc1ccccc1-c1nc(CC(C)(C#N)c2ccc3cc(C)c(=O)[nH]c3c2)no1 (stereo not shown) [Compound 33] | 1.26 | 1 | – |
| CCOC(=O)c1cccc(CC(C)(C#N)c2ccc3cc(CC)c(=O)[nH]c3c2)n1 (stereo not shown) [Compound 215] | 0.398 | 1 | – |
| CCc1cc2ccc(C(C#N)(CC)Cc3ccccc3)cc2[nH]c1=O (stereo not shown) [Compound 32] | 0.501 | 1 | – |
| CCc1cc2cc(F)c(C(C)(C#N)Cc3cccc(C#N)c3)cc2[nH]c1=O (stereo not shown) [Compound 175] | 0.2 | 0.3 | – |
| CCc1cc2ccc(C(C)(C#N)Cc3cccc(C#N)n3)cc2[nH]c1=O (single isomer, unassigned) [Compound 206] | 0.0501 | – | 5 |
| CCc1cc2ccc(C(C)(C#N)Cc3cccc(CN)n3)cc2[nH]c1=O (stereo not shown) [Compound 221] | 0.0794 | 3 | – |
| CCc1cc2ccc(C(C)(C#N)Cc3ncc(C)c(OC)c3C)cc2[nH]c1=O (stereo not shown) [Compound 311] | 0.126 | 1 | – |
| CCc1cc2ccc(C(C)(C#N)Cc3cccc(N(C)C)n3)cc2[nH]c1=O (stereo not shown) [Compound 213] | 0.0631 | 0.3 | – |
| CCc1cc2ccc([C@@](C)(C#N)Cc3cccc(N(C)C)c3)cc2[nH]c1=O (single isomer, unassigned) [Compound 258] | 0.0501 | 0.1 | – |
| CCc1cc2ccc(C(C)(C#N)Cc3cccc(COC)n3)cc2[nH]c1=O (stereo not shown) [Compound 216] | 0.398 | 1 | – |
| CCc1c(C)c2ccc(C(C)(C#N)Cc3cccc(C#N)c3)cc2[nH]c1=O (stereo not shown) [Compound 181] | 0.1 | 0.3 | – |
| CCc1c(Cl)c2ccc(C(C)(C#N)Cc3cccc(C#N)c3)cc2[nH]c1=O (stereo not shown) [Compound 293] | 0.398 | 0.3 | – |
| CCc1cc2ccc(C(C)(C#N)Cc3cccc(C#N)n3)cc2[nH]c1=O (single isomer, unassigned) [Compound 207] | 0.0398 | – | 7 |
| CCc1cc2ccc(C(C)(C#N)Cc3cccc(CO)n3)cc2[nH]c1=O (stereo not shown) [Compound 345] | 0.158 | 0.3 | – |
| CCc1cc2ccc(C(C)(C#N)Cc3cnc(OC)nc3Cl)cc2[nH]c1=O (stereo not shown) [Compound 356] | 0.126 | 0.1 | – |
| CCc1cc2ccc([C@](C)(C#N)[C@H](C)c3ccccc3)cc2[nH]c1=O [Compound 200] | 0.251 | 0.3 | – |
| CCC[C@](C#N)(Cc1ccccc1)c1ccc2cc(CC)c(=O)[nH]c2c1 (single isomer, unassigned) [Compound 264] | 0.398 | 10 | – |
| C#Cc1cccc(C[C@@](C)(C#N)c2ccc3cc(CC)c(=O)[nH]c3c2)c1 [Compound 3] | 0.0794 | 0.01 | – |
